According to PubChem BioAssay (NCI):
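Five compound concentrations were applied to cells in 96-well plates for 48 hours; endpoints were derived by simple linear interpolation of the resulting dose-response curve. TGI: concentration producing complete growth inhibition.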

How the values were obtained:
Assay in all cases: inhibition of tumour cell growth, NCI panel, 48 h
NCI-H23 lung = system: NCI-H23 lung
NCI/ADR-RES ovarian = system: NCI/ADR-RES ovarian
SF-295 CNS = system: SF-295 CNS
RPMI-8226 leukemia = system: RPMI-8226 leukemia
MCF7 breast = system: MCF7 breast
CCRF-CEM leukemia = system: CCRF-CEM leukemia
UACC-62 melanoma = system: UACC-62 melanoma
NCI-H460 lung = system: NCI-H460 lung
SF-268 CNS = system: SF-268 CNS
SK-MEL-2 melanoma = system: SK-MEL-2 melanoma
SW-620 colon = system: SW-620 colon
HCT-116 colon = system: HCT-116 colon
A498 renal = system: A498 renal
EKVX NSCLC = system: EKVX NSCLC
KM12 colon = system: KM12 colon
M14 melanoma = system: M14 melanoma
OVCAR-3 ovarian = system: OVCAR-3 ovarian
T-47D breast = system: T-47D breast
SNB-75 CNS = system: SNB-75 CNS
HOP-92 NSCLC = system: HOP-92 NSCLC
COLO 205 colon = system: COLO 205 colon
NCI-H226 lung = system: NCI-H226 lung
HT29 colon = system: HT29 colon
DU-145 prostate = system: DU-145 prostate
LOX IMVI melanoma = system: LOX IMVI melanoma
HCT-15 colon = system: HCT-15 colon
ACHN renal = system: ACHN renal
RXF 393 renal = system: RXF 393 renal
SK-MEL-5 melanoma = system: SK-MEL-5 melanoma
CAKI-1 renal = system: CAKI-1 renal
A549 NSCLC = system: A549 NSCLC
HL-60(TB) leukemia = system: HL-60(TB) leukemia
BT-549 breast = system: BT-549 breast
PC-3 prostate = system: PC-3 prostate
OVCAR-8 ovarian = system: OVCAR-8 ovarian
IGROV1 ovarian = system: IGROV1 ovarian
SK-MEL-28 melanoma = system: SK-MEL-28 melanoma
MOLT-4 leukemia = system: MOLT-4 leukemia
SNB-19 CNS = system: SNB-19 CNS
MDA-MB-435 = system: MDA-MB-435
SF-539 CNS = system: SF-539 CNS
SN12C renal = system: SN12C renal
MDA-MB-231 breast = system: MDA-MB-231 breast
HOP-62 NSCLC = system: HOP-62 NSCLC
OVCAR-5 ovarian = system: OVCAR-5 ovarian
SK-OV-3 ovarian = system: SK-OV-3 ovarian
MDA-N = system: MDA-N
OVCAR-4 ovarian = system: OVCAR-4 ovarian
U251 CNS = system: U251 CNS
786-0 renal = system: 786-0 renal
UO-31 renal = system: UO-31 renal
K-562 leukemia = system: K-562 leukemia
MALME-3M melanoma = system: MALME-3M melanoma
TK-10 renal = system: TK-10 renal
HS 578T breast = system: HS 578T breast
SR leukemia = system: SR leukemia
HCC-2998 colon = system: HCC-2998 colon
UACC-257 melanoma = system: UACC-257 melanoma
NCI-H522 lung = system: NCI-H522 lung

Measured: TGI

CN(C)CCCNC(=O)c1cc(NC(=O)CCCn2c3ccccc3c3ccccc32)cn1C
59.8 µM: COLO 205 colon
9.32 µM: HOP-92 NSCLC
71.3 µM: A498 renal
33.9 µM: IGROV1 ovarian
75.2 µM: T-47D breast
82 µM: TK-10 renal
61.7 µM: MALME-3M melanoma
92 µM: EKVX NSCLC
not listed: HS 578T breast | SR leukemia | HCC-2998 colon | UACC-257 melanoma | NCI-H522 lung
> 100 µM: all other assays above

Nc1nonc1-c1noc(-c2nonc2N)[n+]1[O-]
33.6 µM: HT29 colon
90.7 µM: A549 NSCLC
79.2 µM: SW-620 colon
49.1 µM: HCT-15 colon
28 µM: NCI-H522 lung
32.8 µM: CCRF-CEM leukemia
82.8 µM: EKVX NSCLC
42.5 µM: MALME-3M melanoma
51.1 µM: RXF 393 renal
51.6 µM: CAKI-1 renal
not listed: OVCAR-3 ovarian | T-47D breast | SNB-75 CNS | COLO 205 colon | HL-60(TB) leukemia | OVCAR-8 ovarian | SF-539 CNS
> 100 µM: all other assays above
